Key:
Assay in all cases: relative viability (nuclei count vs DMSO), 5 days (fraction); higher = more cells survive
[1] = system: SW 900
Outline: (§1)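 The day after seeding in 1536-well plates, lung cancer cell lines were treated by pin tool with a single drug, or with a fixed anchor-drug dose together with five library-drug doses (not always all listed) in √10 steps. After 5 days, a combined fix-and-stain solution (final 0.05% Triton X-100, 1% formaldehyde, 1 ug/ml Hoechst) was added. Nuclei counted on 4× images gave relative viability as treated counts over vehicle counts, reported as the median of duplicate plates.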

[2] = system: H3255
Outline: as §1

[3] = system: COR-L23
Outline: as §1

[4] = system: NCI-H2170
Outline: as §1

[5] = system: NCI-H322M
Outline: as §1

[6] = system: NCI-H2023
Outline: as §1

[7] = system: EPLC-272H
Outline: as §1

[8] = system: NCI-H3122
Outline: as §1

[9] = system: NCI-H1563
Outline: as §1

[10] = system: NCI-H2347
Outline: as §1

[11] = system: NCI-H1650
Outline: as §1

Cc1sc2c(c1C)C(c1ccc(Cl)cc1)=N[C@@H](CC(=O)OC(C)(C)C)c1nnc(C)n1-2 [JQ1] + CCNC(=O)c1noc(-c2cc(C(C)C)c(O)cc2O)c1-c1ccc(CN2CCOCC2)cc1 [Luminespib] (partner 0.01 µM)
relative viability ([1]; first compound 0.04 µM): 0.153
relative viability ([1]; first compound 0.1265 µM): 0.186
relative viability ([1]; first compound 0.4 µM): 0.169
relative viability ([1]; first compound 1.265 µM): 0.183
relative viability ([1]; first compound 4 µM): 0.177
relative viability ([2]; first compound 0.04 µM): 0.904
relative viability ([2]; first compound 0.1265 µM): 0.699
relative viability ([2]; first compound 0.4 µM): 1.01
relative viability ([2]; first compound 1.265 µM): 0.768
relative viability ([2]; first compound 4 µM): 0.416
relative viability ([3]; first compound 0.04 µM): 0.649
relative viability ([3]; first compound 0.1265 µM): 0.6
relative viability ([3]; first compound 0.4 µM): 0.504
relative viability ([3]; first compound 1.265 µM): 0.207
relative viability ([3]; first compound 4 µM): 0.114
relative viability ([4]; first compound 0.04 µM): 0.743
relative viability ([4]; first compound 0.1265 µM): 0.837
relative viability ([4]; first compound 0.4 µM): 0.572
relative viability ([4]; first compound 1.265 µM): 0.326
relative viability ([4]; first compound 4 µM): 0.336
relative viability ([5]; first compound 0.04 µM): 0.797
relative viability ([5]; first compound 0.1265 µM): 0.879
relative viability ([5]; first compound 0.4 µM): 0.599
relative viability ([5]; first compound 1.265 µM): 0.383
relative viability ([5]; first compound 4 µM): 0.395
relative viability ([6]; first compound 0.04 µM): 0.731
relative viability ([6]; first compound 0.1265 µM): 0.67
relative viability ([6]; first compound 0.4 µM): 0.358
relative viability ([6]; first compound 1.265 µM): 0.107
relative viability ([6]; first compound 4 µM): 0.146
relative viability ([7]; first compound 0.04 µM): 0.451
relative viability ([7]; first compound 0.1265 µM): 0.332
relative viability ([7]; first compound 0.4 µM): 0.238
relative viability ([7]; first compound 1.265 µM): 0.179
relative viability ([7]; first compound 4 µM): 0.189
relative viability ([8]; first compound 0.04 µM): 0.0811
relative viability ([8]; first compound 0.1265 µM): 0.0744
relative viability ([8]; first compound 0.4 µM): 0.162
relative viability ([8]; first compound 1.265 µM): 0.0911
relative viability ([8]; first compound 4 µM): 0.131
relative viability ([9]; first compound 0.04 µM): 0.565
relative viability ([9]; first compound 0.1265 µM): 0.478
relative viability ([9]; first compound 0.4 µM): 0.449
relative viability ([9]; first compound 1.265 µM): 0.447
relative viability ([9]; first compound 4 µM): 0.491
relative viability ([10]; first compound 0.04 µM): 0.45
relative viability ([10]; first compound 0.1265 µM): 0.675
relative viability ([10]; first compound 0.4 µM): 0.3
relative viability ([10]; first compound 1.265 µM): 0.316
relative viability ([10]; first compound 4 µM): 0.32
relative viability ([11]; first compound 0.04 µM): 0.21
relative viability ([11]; first compound 0.1265 µM): 0.199
relative viability ([11]; first compound 0.4 µM): 0.167
relative viability ([11]; first compound 1.265 µM): 0.161
